Patent US8735406B2, “8-oxodihydropurine derivative” (Dainippon Sumitomo Pharma Co., Ltd., priority 2009, dated 2014)

Target: T1, FAAH (Rattus norvegicus, UniProt P97612)
T1 construct: Preparation of Rat Brain Membranes Preparations (FAAH Enzyme Solution); from tissue; host or cells: rat cerebrum (brain membrane preparation)
T1 sequence (P97612 1-579): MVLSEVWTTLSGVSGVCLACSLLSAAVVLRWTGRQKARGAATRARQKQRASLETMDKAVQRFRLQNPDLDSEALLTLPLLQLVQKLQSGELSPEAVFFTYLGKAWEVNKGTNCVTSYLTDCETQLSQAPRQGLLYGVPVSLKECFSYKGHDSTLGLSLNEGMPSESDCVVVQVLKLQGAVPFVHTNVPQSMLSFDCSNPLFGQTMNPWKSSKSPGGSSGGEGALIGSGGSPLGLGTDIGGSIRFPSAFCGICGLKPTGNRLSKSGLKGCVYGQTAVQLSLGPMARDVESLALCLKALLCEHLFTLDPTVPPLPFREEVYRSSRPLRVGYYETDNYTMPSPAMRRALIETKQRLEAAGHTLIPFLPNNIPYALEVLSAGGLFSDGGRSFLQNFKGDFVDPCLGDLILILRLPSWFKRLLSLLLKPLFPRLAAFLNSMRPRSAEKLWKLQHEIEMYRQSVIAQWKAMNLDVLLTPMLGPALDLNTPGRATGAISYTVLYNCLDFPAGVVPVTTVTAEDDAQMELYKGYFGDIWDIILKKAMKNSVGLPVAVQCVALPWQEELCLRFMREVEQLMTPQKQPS
Assay: Determination of FAAH inhibitory activity in rat (rat brain membrane preparations, [3H]-anandamide hydrolysis)
Type: biochemical
Conditions: rat brain membrane preparations; for inhibition at 0.1 µM: 100 nM test substance, read-out: FAAH Inhibition, Inhibition Rate at 100 nM; for IC50: test substance 0.1 nM to 1 μM, read-out: FAAH Inhibition IC50
Outline: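 Compounds tested from 0.1 nM to 1 μM to derive IC50 against FAAH hydrolysis in rat brain membrane preparations (100 μg/mL). A 10-min 37 °C preincubation was followed by 10 min with [3H]-anandamide (2 nM) mixed with 2 μM unlabelled anandamide. Radioactive ethanolamine was extracted into the water/methanol layer and counted.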

Row | Compound | inhibition at 0.1 µM [%] | IC50 [nM]
1 | Cc1cccc(-c2ncc3c(n2)n(C(=O)N2CCCC2)c(=O)n3C)c1 [Example 228, 7-Methyl-2-(3-methylphenyl)-9-(pyrrolidin-1-ylcarbonyl)-7,9-dihydro-8H-purine-8-one] | 99 | 31
2 | Cc1ccc(-c2ncc3c(n2)n(C(=O)N2CCCC2)c(=O)n3C)cc1 [Example 229, 7-Methyl-2-(4-methylphenyl)-9-(pyrrolidin-1-ylcarbonyl)-7,9-dihydro-8H-purine-8-one] | 90 | 53
3 | COc1cccc(-c2ncc3c(n2)n(C(=O)N2CCCC2)c(=O)n3C)c1 [Example 230, 2-(3-Methoxyphenyl)-7-methyl-9-(pyrrolidin-1-ylcarbonyl)-7,9-dihydro-8H-purine-8-one] | 94 | 44
4 | COc1ccc(-c2ncc3c(n2)n(C(=O)N2CCCC2)c(=O)n3C)cc1 [Example 231, 2-(4-Methoxyphenyl)-7-methyl-9-(pyrrolidin-1-ylcarbonyl)-7,9-dihydro-8H-purine-8-one] | 91 | 51
5 | CCOc1cccc(-c2ncc3c(n2)n(C(=O)N2CCCC2)c(=O)n3C)c1 [Example 232, 2-(3-ethoxyphenyl)-7-methyl-9-(pyrrolidin-1-ylcarbonyl)-7,9-dihydro-8H-purine-8-one] | 101 | 20
6 | CCOc1ccc(-c2ncc3c(n2)n(C(=O)N2CCCC2)c(=O)n3C)cc1 [Example 233, 2-(4-Ethoxyphenyl)-7-methyl-9-(pyrrolidin-1-ylcarbonyl)-7,9-dihydro-8H-purine-8-one] | 97 | 40
7 | Cn1c(=O)n(C(=O)N2CCCC2)c2nc(-c3cccc(C(F)(F)F)c3)ncc21 [Example 234, 7-Methyl-9-(pyrrolidin-1-ylcarbonyl)-2-[3-(trifluoromethyl)phenyl]-7,9-dihydro-8H-purine-8-one] | 100 | 9
8 | Cn1c(=O)n(C(=O)N2CCCC2)c2nc(-c3ccc(C(F)(F)F)cc3)ncc21 [Example 235, 7-Methyl-9-(pyrrolidin-1-ylcarbonyl)-2-[4-(trifluoromethyl)phenyl]-7,9-dihydro-8H-purine-8-one] | 98 | 39
9 | Cn1c(=O)n(C(=O)N2CCCC2)c2nc(-c3cccc(OC(F)(F)F)c3)ncc21 [Example 236, 7-Methyl-9-(pyrrolidin-1-ylcarbonyl)-2-[3-(trifluoromethoxy)phenyl]-7,9-dihydro-8H-purine-8-one] | 100 | 6
10 | Cn1c(=O)n(C(=O)N2CCCC2)c2nc(-c3ccc(OC(F)(F)F)cc3)ncc21 [Example 237, 7-Methyl-9-(pyrrolidin-1-ylcarbonyl)-2-[4-(trifluoromethoxy)phenyl]-7,9-dihydro-8H-purine-8-one] | 98 | 32
11 | CC(=O)c1cccc(-c2ncc3c(n2)n(C(=O)N2CCCC2)c(=O)n3C)c1 [Example 238, 2-(3-Acetylphenyl)-7-methyl-9-(pyrrolidin-1-ylcarbonyl)-7,9-dihydro-8H-purine-8-one] | 84 | 58
12 | Cn1c(=O)n(C(=O)N2CCCC2)c2nc(-c3ccc(-c4ccccc4)cc3)ncc21 [Example 239, 2-(Biphenyl-4-yl)-7-methyl-9-(pyrrolidin-1-ylcarbonyl)-7,9-dihydro-8H-purine-8-one] | 89 | 52
13 | Cn1c(=O)n(C(=O)N2CCCC2)c2nc(/C=C/c3ccccc3)ncc21 [Example 241, 7-Methyl-2-[(E)-2-phenylethenyl]-9-(pyrrolidin-1-ylcarbonyl)-7,9-dihydro-8H-purine-8-one] | 94 | 43
14 | Cn1c(=O)n(C(=O)N2CCCC2)c2nc(/C=C/c3ccc(C(F)(F)F)cc3)ncc21 [Example 243, 7-methyl-9-(pyrrolidin-1-ylcarbonyl)-2-{(E)-2-[4-(trifluoromethyl)phenyl]ethenyl}-7,9-dihydro-8H-purine-8-one] | 89 | 5
15 | Cn1c(=O)n(C(=O)N2CCCC2)c2nc(/C=C/c3cccc(C(F)(F)F)c3)ncc21 [Example 244, 7-Methyl-9-(pyrrolidin-1-ylcarbonyl)-2-{(E)-2-[3-(trifluoromethyl)phenyl]ethenyl}-7,9-dihydro-8H-purine-8-one] | 86 | 11
16 | Cn1c(=O)n(C(=O)N2CCCC2)c2nc(/C=C/c3ccc(F)cc3)ncc21 [Example 245, 2-[(E)-2-(4-Fluorophenyl)ethenyl]-7-methyl-9-(pyrrolidin-1-ylcarbonyl)-7,9-dihydro-8H-purine-8-one] | 80 | 58
17 | Cn1c(=O)n(C(=O)N2CCCC2)c2nc(/C=C/c3cccc(F)c3)ncc21 [Example 246, 2-[(E)-2-(3-Fluorophenyl)ethenyl]-7-methyl-9-(pyrrolidin-1-ylcarbonyl)-7,9-dihydro-8H-purine-8-one] | 98 | 23
18 | COc1cccc(/C=C/c2ncc3c(n2)n(C(=O)N2CCCC2)c(=O)n3C)c1 [Example 247, 2-[(E)-2-(3-Methoxyphenyl)ethenyl]-7-methyl-9-(pyrrolidin-1-ylcarbonyl)-7,9-dihydro-8H-purine-8-one] | 97 | 39
19 | Cn1c(=O)n(C(=O)N2CCCC2)c2nc(-c3cccnc3)ncc21 [Example 248] | 33 | > 100
20 | Cn1c(=O)n(C(=O)N2CCCC2)c2nc(-c3ccc(F)nc3)ncc21 [Example 249] | 55 | 91
21 | COc1ccc(-c2ncc3c(n2)n(C(=O)N2CCCC2)c(=O)n3C)cn1 [Example 250, 2-(6-Methoxypyridin-3-yl)-7-methyl-9-(pyrrolidin-1-ylcarbonyl)-7,9-dihydro-8H-purine-8-one] | 78 | 63
22 | COc1cncc(-c2ncc3c(n2)n(C(=O)N2CCCC2)c(=O)n3C)c1 [Example 251] | 28 | > 100
23 | Cn1c(=O)n(C(=O)N2CCCC2)c2nc(-c3ccncc3)ncc21 [Example 252] | 40 | > 100
24 | Cn1c(=O)n(C(=O)N2CCCC2)c2cnc(Cc3ccccc3)nc21 [Example 253, 2-benzyl-9-methyl-7-(pyrrolidin-1-ylcarbonyl)-7,9-dihydro-8H-purine-8-one] | 100 | 5
25 | Cn1c(=O)n(C(=O)N2CCCC2)c2cnc(Cc3ccccc3F)nc21 [Example 254, 2-(2-Fluorobenzyl)-9-methyl-7-(pyrrolidin-1-ylcarbonyl)-7,9-dihydro-8H-purine-8-one] | 98 | 33
26 | Cn1c(=O)n(C(=O)N2CCCC2)c2cnc(Cc3cccc(F)c3)nc21 [Example 255, 2-(3-Fluorobenzyl)-9-methyl-7-(pyrrolidin-1-ylcarbonyl)-7,9-dihydro-8H-purine-8-one] | 100 | 14
27 | Cn1c(=O)n(C(=O)N2CCCC2)c2cnc(Cc3ccc(F)cc3)nc21 [Example 256, 2-(4-Fluorobenzyl)-9-methyl-7-(pyrrolidin-1-ylcarbonyl)-7,9-dihydro-8H-purine-8-one] | 99 | 7
